{"source": "patent US7514245B2", "about": "“Method for producing chiral α-hydroxycarboxylic acids by enzymatic hydrolysis of chiral cyanohydrins” (DSM Fine Chemicals Austria NFG GmbH & Co. KG, priority 2003, dated 2009)", "key": {"[1]": {"tested_on": "Rhodococcus erythropolis NCIMB 11540 cells", "assay": "Enzymatic hydrolysis at different substrate concentrations, Experiment 4.1", "type": "cell-based", "settings": "5% DMSO, 30° C.", "method": "In experiment 4.1, the reaction was carried out on an analytical scale (reaction volume 1 ml) using 3 substrate concentrations (2.2 g/l, 6.6 g/l, 13.2 g/l).\nThe biocatalyst was produced according to Example 1, Variant II, 2 l of fermentation medium, harvest after 20 hours (OD546 6.1). The cells from 8 times 10 ml of fermentation solution were centrifuged off in culture tubes. The resultant cell mass was washed once in each case with 2 ml K/Na-phosphate buffer (pH 6.5, 50 mM). The contents of 2 tubes were lyophilized for determining the dry weight. • Weight: 1. 37 mg of lyophilized cells/10 ml fermentation solution • 2. 30 mg\nThe contents of the remaining 6 tubes were resuspended in 950 μl of buffer (OD approximately 40) and transferred to Eppendorfs. To each of these cell suspensions were added 50 μl of variously concentrated substrate solutions (3 concentrations, parallel batches, 5% DMSO as cosolvent). The Eppendorfs were shaken on the Thermomixer at 30° C. and 1000 rpm. For monitoring the conversion rate, in each case 200 μl were withdrawn and admixed with 200 μl of 1N HCl. After centrifugation (5 min, 13 000 rpm) and dilution, the conversion rates were determined by HPLC.\nFollowing concentrations of (R)-2-chloromandelonitrile were used: • a. Substrate solution: 11 mg of (R)-2-chloromandelonitrile in 250 μl of DMSO (approximately 260 mM) • Substrate concentration in the batch: 2.2 g/l (13.1 mM) • b. Substrate solution: 33 mg of (R)-2-chloromandelonitrile in 250 μl of DMSO (approximately […]) • Substrate concentration in the batch: substrate concentration: 6.6 g/l (39.4 mM) • c. Substrate solution: 66 mg of (R)-2-chloromandelonitrile in 250 μl of DMSO (approximately 1580 mM) • Substrate concentration in the batch: 13.2 g/l (78.8 mM)"}, "[2]": {"biological_target": "T1, nitrile hydratase of Rhodococcus erythropolis NCIMB 11540 (Rhodococcus erythropolis, UniProt P13448+P13449)", "T1 construct": "made in house; host or cells: E. coli B BL21 (plasmid pMS470Nhase7.3 or pMSNhasetactac7.3), crude lysate", "T1 sequence (P13448 1-207)": "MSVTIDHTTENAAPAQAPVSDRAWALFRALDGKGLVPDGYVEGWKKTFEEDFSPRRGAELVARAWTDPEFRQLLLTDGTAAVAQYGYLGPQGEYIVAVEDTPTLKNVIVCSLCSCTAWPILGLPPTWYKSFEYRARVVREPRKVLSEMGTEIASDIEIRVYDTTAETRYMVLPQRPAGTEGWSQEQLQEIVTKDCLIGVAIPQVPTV", "T1 sequence (P13449 1-212)": "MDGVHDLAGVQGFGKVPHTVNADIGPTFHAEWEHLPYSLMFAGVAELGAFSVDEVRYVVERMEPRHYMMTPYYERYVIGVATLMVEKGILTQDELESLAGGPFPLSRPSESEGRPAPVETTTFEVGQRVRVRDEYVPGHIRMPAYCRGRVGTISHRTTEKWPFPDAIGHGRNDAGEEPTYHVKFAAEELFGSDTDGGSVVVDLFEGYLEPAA", "assay": "Hydrolysis using the recombinant enzyme (crude lysate of E. coli clone 7.3)", "type": "biochemical", "settings": "substrate approximately 10 mM, 5% DMSO, 30° C., pH 7; for Activity of the nitrile hydratase: relative to 2-hydroxy-4-phenylbutyronitrile (100%)", "method": "In these reactions, cloned nitrile hydratase of Rhodococcus erythropolis NCIMB 11540 was used as crude lysate of E. coli clone 7.3 (produced according to Example 9).\n50 μl of crude lysate were diluted with 425 μl of buffer (K/Na—PO4 buffer, pH 7, 50 mM) and admixed with 25 μl of an approximately 220 mM substrate solution in DMSO (5 mg of protein/ml substrate concentration approximately 10 mM, 5% DMSO). The reaction was carried out in the Thermomixer at 30° C. and 1000 rpm. After 0, 2, 4, 6, 8, 10, 15, 20, 30, 60 and 120 minutes, in each case one Eppendorf was admixed with 0.5 ml of 1N HCl. After centrifugation (5 min, 13 000 rpm) and corresponding dilution, the concentrations of cyanohydrin and hydroxyamide were determined by HPLC. The activity of the nitrile hydratase was determined from the velocity of formation of hydroxyamide (gradient in the initial range). The standard substrate (100% activity) used was 2-hydroxy-4-phenylbutyronitile. The activity in the hydrolysis of the other substrates was compared with the activity on 2-hydroxy-4-phenylbutyronitrile (Tab. 5)."}}}
{"smiles": "O=C(O)[C@H](O)c1ccccc1Cl", "note": "[(R)-2-chloromandelic acid]", "values": [{"measurement": "formation of (R)-2-chloromandelic acid", "setting": "[1]; batch a: 2.2 g/l (13.1 mM) (R)-2-chloromandelonitrile, 10 min", "result": 77, "unit": "%"}, {"measurement": "formation of (R)-2-chloromandelic acid", "setting": "[1]; batch a: 2.2 g/l (13.1 mM), 20 min", "result": 86, "unit": "%"}, {"measurement": "formation of (R)-2-chloromandelic acid", "setting": "[1]; batch a: 2.2 g/l (13.1 mM), 30 min", "result": 92, "unit": "%"}, {"measurement": "formation of (R)-2-chloromandelic acid", "setting": "[1]; batch a: 2.2 g/l (13.1 mM), 40 min", "result": 94, "unit": "%"}, {"measurement": "formation of (R)-2-chloromandelic acid", "setting": "[1]; batch a: 2.2 g/l (13.1 mM), 50 min", "result": 96, "unit": "%"}, {"measurement": "formation of (R)-2-chloromandelic acid", "setting": "[1]; batch b: 6.6 g/l (39.4 mM), 10 min", "result": 45, "unit": "%"}, {"measurement": "formation of (R)-2-chloromandelic acid", "setting": "[1]; batch b: 6.6 g/l (39.4 mM), 20 min", "result": 70, "unit": "%"}, {"measurement": "formation of (R)-2-chloromandelic acid", "setting": "[1]; batch b: 6.6 g/l (39.4 mM), 30 min", "result": 82, "unit": "%"}, {"measurement": "formation of (R)-2-chloromandelic acid", "setting": "[1]; batch b: 6.6 g/l (39.4 mM), 40 min", "result": 89, "unit": "%"}, {"measurement": "formation of (R)-2-chloromandelic acid", "setting": "[1]; batch b: 6.6 g/l (39.4 mM), 50 min", "result": 95, "unit": "%"}, {"measurement": "formation of (R)-2-chloromandelic acid", "setting": "[1]; batch c: 13.2 g/l (78.8 mM), 10 min", "result": 58, "unit": "%"}, {"measurement": "formation of (R)-2-chloromandelic acid", "setting": "[1]; batch c: 13.2 g/l (78.8 mM), 20 min", "result": 85, "unit": "%"}, {"measurement": "formation of (R)-2-chloromandelic acid", "setting": "[1]; batch c: 13.2 g/l (78.8 mM), 30 min", "result": 96, "unit": "%"}, {"measurement": "formation of (R)-2-chloromandelic acid", "setting": "[1]; batch c: 13.2 g/l (78.8 mM), 40 min", "result": 98, "unit": "%"}, {"measurement": "formation of (R)-2-chloromandelic acid", "setting": "[1]; batch c: 13.2 g/l (78.8 mM), 50 min", "result": 100, "unit": "%"}]}
{"smiles": "N#CC(O)c1ccccc1Cl", "note": "(stereo not shown)", "values": [{"measurement": "Activity of the nitrile hydratase", "setting": "[2]", "result": 100, "unit": "%"}]}
{"smiles": "N#CC(O)CCc1ccccc1", "note": "(stereo not shown) [2-hydroxy-4-phenylbutyronitrile]", "values": [{"measurement": "activity of the nitrile hydratase in the crude lysate", "setting": "[2]; E. coli clone 7.3", "result": "approximately 0.3 μmol·mg^−1·min^−1"}]}
{"smiles": "N#CC(O)CCc1ccccc1", "note": "(stereo not shown) [drawing 3]", "values": [{"measurement": "Activity of the nitrile hydratase", "setting": "[2]", "result": 100, "unit": "%"}]}
{"smiles": "Cc1ccc(C(O)C#N)cc1", "note": "(stereo not shown)", "values": [{"measurement": "Activity of the nitrile hydratase", "setting": "[2]", "result": 60, "unit": "%"}]}
